According to patent publication US5506262A, “Cholesterol lowering compounds” (Merck & Co., Inc., priority 1993, dated 1996):
Values after ≈ are worked out from the molar mass of the structure shown.

Experiments:
[1] = biological target: T1, Farnesyl-protein transferase (Ftase) (Bos taurus, UniProt P29702+P49355); assay: RASIT ASSAY I: inhibition of Ras farnesylation in vitro; type: biochemical, bovine; conditions: Ras-CVLS 3.5 μM, 0.25 μM [3H]FPP
T1 construct: Farnesyl-protein transferase (Ftase) from bovine brain was chromatographed on DEAE-Sephacel; from tissue; host or cells: bovine brain, partially purified (DEAE-Sephacel, N-octyl agarose, mono Q)
Method: (§1) The intrinsic farnesyl-protein transferase (FTase) activity of representative compounds of this invention was measured by the assays described below:
(§2) Farnesyl-protein transferase (Ftase) from bovine brain was chromatographed on DEAE-Sephacel (Pharmacia, 0-0.8M NaCl gradient elution), N-octyl agarose (Sigma, 0-0.6M Nacl gradient elution), and a mono Q HPLC column (Pharmacia, 0-0.3M NaCl gradient). Ras-CVLS at 3.5 μM, 0.25 μM [^3 H]FPP, and the indicated compounds were incubated with this partially purified enzyme preparation. The Ftase data presented below is a measurement of the ability of the test compound to inhibit Ras farnesylation in vitro.
(§3) Table 8 lists IC50 data which is representative of the intrinsic Ras inhibitory activity of the compounds of this invention. Data of representative compounds from each embodiment and class of the invention is provided. When an inhibitory value is not provided for a given assay, the compound was not tested in that protocol.

[2] = test system: C. tropicalis MY1012; assay: Antifungal MIC, microtiter dilution assay; type: cell-based; conditions: Candida tropicalis, 24 to 48 hours, 35° C., read-out: Minimum Inhibitory Concentration
Method: (§4) The compounds are particularly active towards filamentous fungi and yeasts including Candida albicans and Cryptococcus neoformans. The sensitivity of filamentous fungi and yeast was determined using inhibitor dilution assays in microtiter format. The compounds were dissolved in DMSO at 2 mg/ml and serially diluted in 0.1M phosphate buffer, pH 7.0 in the microtiter dish from 100 to 0.006 μg/ml. A standardized spore suspension for testing the filamentous fungi was prepared by inoculating Antibiotic Medium #3 containing 1.5% agar with spores such that 1.5×10^3 colony forming units were added per well. The microtiter wells were filled with 50 μl of buffer containing compound and 50 μl of inoculated medium.
(§5) The sensitivity of yeasts was determined by inoculating yeast nitrogen base containing 1% dextrose (YNB/G) with aliquots of an overnight yeast culture grown in Yeast Morphology (YM) media at 35° C. and diluting in YNB/G to yield a final concentration of 1.5-7.5×10^3 colony forming units/well. To test the sensitivity of yeast, compound was solubilized in 10 percent aqueous DMSO at 2.56 mg/ml. The compound was diluted serially in YNB/G from 128 to 0.06 μg/ml and further diluted 1:10 in YNB/G. The wells were filled with 150 μl of media containing drug. […] Representative of the antifungal activity are the minimum inhibitory concentration data shown below for representative compounds from the various embodiments and classes described hereinabove.

[3] = test system: C. parapsilosis MY1010; assay: Antifungal MIC, microtiter dilution assay; type: cell-based; conditions: Lodderomyces parapsilosis, 24 to 48 hours, 35° C., read-out: Minimum Inhibitory Concentration
Method: as §4, §5

[4] = test system: Crypt. neoformans MY1051; assay: Antifungal MIC, microtiter dilution assay; type: cell-based; conditions: Cryptococcus neoformans, 24 to 48 hours, 35° C., read-out: Minimum Inhibitory Concentration
Method: as §4, §5

[5] = test system: Aspergillus flavus MF383; assay: Antifungal MIC, microtiter dilution assay; type: cell-based; conditions: 42 hours, 28° C., read-out: Minimum Inhibitory Concentration
Method: as §4, §5

[6] = test system: Candida albicans MY1055; assay: Antifungal MIC, microtiter dilution assay; type: cell-based; conditions: 24 to 48 hours, 35° C., read-out: Minimum Inhibitory Concentration
Method: as §4, §5

[7] = biological target: T1, Farnesyl-protein transferase (Ftase); assay: RASIT ASSAY II: inhibition of Ras farnesylation in vitro; type: biochemical, bovine; conditions: Ras-CVLS 1.0 μM, 0.5 μM [3H]FPP
Method: as §1
as §2, with “1.0” for “3.5”, “0.5” for “0.25”
as §3

IC50 [1] [nM]	MIC [2] [µg/mL]	MIC [3] [µg/mL]	MIC [4] [µg/mL]	MIC [5] [µg/mL]	MIC [6] [µg/mL]	IC50 [7] [nM]	Compound
4000	1 (≈ 1.42 µM)	16 (≈ 22.7 µM)	1 (≈ 1.42 µM)	4 (≈ 5.68 µM)	4 (≈ 5.68 µM)		C=C(CC[C@]12O[C@H](C(=O)O)[C@@](O)(C(=O)O)[C@](C(=O)O)(O1)[C@H](OC(=O)/C=C/[C@@H](C)C[C@@H](C)CC)[C@H]2OC)[C@@H](OC(C)=O)[C@H](C)Cc1ccccc1 [5n']
	128 (≈ 154 µM)	1 (≈ 1.2 µM)	0.25 (≈ 0.301 µM)	1 (≈ 1.2 µM)	8 (≈ 9.63 µM)		C=C(CC[C@]12O[C@H](C(=O)O)[C@@](O)(C(=O)O)[C@](C(=O)O)(O1)[C@H](OCCCCCCCCCCOc1ccc(OC)c(OC)c1)[C@H]2O)[C@@H](OC(C)=O)[C@H](C)Cc1ccccc1 [5q"']
	> 128	> 128	32 (≈ 47.6 µM)		1 (≈ 1.49 µM)		C=C(CC[C@]12O[C@H](C(=O)O)[C@@](O)(C(=O)O)[C@](C(=O)O)(O1)[C@H](OC(=O)NCc1ccccc1)[C@H]2O)[C@@H](OC(C)=O)[C@H](C)Cc1ccccc1 [Compound 5s]
	0.5 (≈ 0.681 µM)	> 128	> 128	0.5 (≈ 0.681 µM)	8 (≈ 10.9 µM)		C=C(CC[C@]12O[C@H](C(=O)O)[C@@](O)(C(=O)O)[C@](C(=O)O)(O1)[C@H](OC(=O)Nc1ccc(-c3ccccc3)cc1)[C@H]2O)[C@@H](OC(C)=O)[C@H](C)Cc1ccccc1 [Compound 5t]
500						27	C=C(CC[C@]12O[C@H](C(=O)O)[C@@](O)(C(=O)O)[C@](C(=O)O)(O1)[C@H](OC(=O)NCCCCCCCCCCCOc1ccccc1)[C@H]2O)[C@@H](OC(C)=O)[C@H](C)Cc1ccccc1 [Compound 5u]
500						27	C=C(CC[C@]12O[C@H](C(=O)O)[C@@](O)(C(=O)O)[C@](C(=O)O)(O1)[C@H](OC(=O)OCCCCCCCCCCCOc1ccccc1)[C@H]2O)[C@@H](OC(C)=O)[C@H](C)Cc1ccccc1 [Compound 5y]
	2 (≈ 2.78 µM)	2 (≈ 2.78 µM)	0.5 (≈ 0.696 µM)	2 (≈ 2.78 µM)	2 (≈ 2.78 µM)		C=C(CC[C@]12O[C@H](C(=O)O)[C@@](O)(C(=O)O)[C@](C(=O)O)(O1)[C@H](OC(=O)/C=C/[C@@H](C)C[C@@H](C)CC)[C@H]2O)[C@@H](OC(=O)CCC)[C@H](C)Cc1ccccc1 [Compound 7b, IA-Cl(4')-Butanoyl tri-acid]
1700						52	C=C(CC[C@]12O[C@H](C(=O)O)[C@@](O)(C(=O)O)[C@](C(=O)O)(O1)[C@H](OC(=O)/C=C/[C@@H](C)C[C@@H](C)CC)[C@H]2O)[C@@H](OC(=O)c1ccccc1)[C@H](C)Cc1ccccc1 [Compound 7d]
	2 (≈ 2.9 µM)	8 (≈ 11.6 µM)	1 (≈ 1.45 µM)	2 (≈ 2.9 µM)	8 (≈ 11.6 µM)		C=C(CC[C@]12O[C@H](C(N)=O)[C@@](O)(C(=O)O)[C@](C(=O)O)(O1)[C@H](OC(=O)/C=C/[C@@H](C)C[C@@H](C)CC)[C@H]2O)[C@@H](OC(C)=O)[C@H](C)Cc1ccccc1 [Compound 12a, IA-3-carboxamide]
	8 (≈ 10.4 µM)	32 (≈ 41.7 µM)	0.25 (≈ 0.326 µM)	2 (≈ 2.6 µM)	16 (≈ 20.8 µM)		C=C(CC[C@]12O[C@H](C(=O)Nc3ccncn3)[C@@](O)(C(=O)O)[C@](C(=O)O)(O1)[C@H](OC(=O)/C=C/[C@@H](C)C[C@@H](C)CC)[C@H]2O)[C@@H](OC(C)=O)[C@H](C)Cc1ccccc1 [Compound 12n, IA-3-(4-amidopyrimidine)]
	8 (≈ 12.6 µM)	> 128	2 (≈ 3.14 µM)	4 (≈ 6.28 µM)	8 (≈ 12.6 µM)		CC[C@H](C)C[C@H](C)CCC(=O)O[C@@H]1[C@@H](O)[C@@]2(CCC(C)C[C@H](C)Cc3ccccc3)O[C@H](C(=O)O)[C@@](O)(C(=O)O)[C@]1(C(=O)O)O2 (stereo partly drawn) [Compound 25b, (1S,3S,4S, 5R,6R,7R)-1-[3,5(R)-dimethyl-6-phenyl]hexyl-4,6,7trihydroxy-6-O-(4(S),6(S)-dimethyl-2-octanoyl)-2,8-dioxabicyclo[3.2.1]octane-3,4,5-tricarboxylic acid]
120						19	CC[C@H](C)C[C@H](C)/C=C/C(=O)O[C@@H]1[C@@H](O)[C@@]2(CCCOC(=O)CCCc3ccccc3)O[C@H](C(=O)O)[C@@](O)(C(=O)O)[C@]1(C(=O)O)O2 [Compound 39e, 39-4-phenylbutyrate ester]

Compound	IC50 [1] [nM]	MIC [2] [µg/mL]	MIC [3] [µg/mL]	MIC [4] [µg/mL]	MIC [5] [µg/mL]	MIC [6] [µg/mL]	IC50 [7] [nM]
CC[C@H](C)C[C@H](C)CCC(=O)O[C@@H]1[C@@H](O)[C@@]2(CCC(C)[C@@H](OC(C)=O)[C@H](C)Cc3ccccc3)O[C@H](C(=O)O)[C@@](O)(C(=O)O)[C@]1(C(=O)O)O2 (stereo partly drawn) [Compound 24b, (1S,3S,4S,5R,6R,7R)-1-[(4S)-acetoxy-3,5(R)-dimethyl-6-phenyl]hexyl-4,6,7-trihydroxy-6-O-(4(S),6(S)-dimethyl-2-octanoyl)-2,8-dioxabicyclo-[3,2,1]octane-3,4,5-tricarboxylic acid]	1300						
